Measurements published in patent US8048825B2, “Haloalkylsulfonanilide derivatives or salt thereof, herbicide comprising the derivatives as active ingredient, and use of the herbicide” (Nihon Nohyaku Co., Ltd., priority 2006, dated 2011).

Experiments:
Format in all cases: in vivo
Lindernia procumbens [1] = assay: Herbicidal efficacy on paddy field weeds of pre-emergence stage (Pre), Test Example 1; conditions: 1000 g/ha as active ingredient, examined after 21 days
Summary of the method: (§1)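 Pre-emergence paddy test: 1000 g/ha active ingredient, formulated and water-diluted, dropped onto 5 cm floodwater one day after sowing both weeds in clay loam. After 21 days in greenhouse, inhibition relative to untreated control rated on 0 (0%) to 5 (100%) scale.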

Scirpus juncoides [2] = assay: as above; conditions: 1000 g/ha as active ingredient, examined after 21 days
Summary of the method: as §1

Echinochloa crus-galli = assay: Herbicidal effect on paddy field weeds of post-emergence stage (Post), Test Example 2; conditions: one-leaf stage, 1000 g/ha as active ingredient, examined after 21 days
Summary of the method: (§2)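 Post-emergence paddy test: formulated compound added to 5 cm standing water at 1000 g/ha a.i. when weeds reached one-leaf stage in clay loam pots in greenhouse. Growth inhibition rated 21 days later versus untreated control on a 0 (0%) to 5 (100%) scale.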

Lindernia procumbens [3] = assay: as above; conditions: one-leaf stage, 1000 g/ha as active ingredient, examined after 21 days
Summary of the method: as §2

Scirpus juncoides [4] = assay: as above; conditions: one-leaf stage, 1000 g/ha as active ingredient, examined after 21 days
Summary of the method: as §2

Row | SMILES | Lindernia procumbens pre (herbicidal effect) (Lindernia procumbens [1]) | Scirpus juncoides pre (herbicidal effect) (Scirpus juncoides [2]) | Echinochloa crus-galli post (herbicidal effect) (Echinochloa crus-galli) | Lindernia procumbens post (herbicidal effect) (Lindernia procumbens [3]) | Scirpus juncoides post (herbicidal effect) (Scirpus juncoides [4])
1 | CCC1(C(F)(F)F)CCN(Cc2ccccc2NS(=O)(=O)C(F)(F)F)C(=O)O1 (stereo not shown) [Compound 1-91] | 5 (100% herbicidal effect, phytotoxicity) | 4 (90%-99% herbicidal effect, phytotoxicity) | 4 (90%-99% herbicidal effect, phytotoxicity) | 5 (100% herbicidal effect, phytotoxicity) | 4 (90%-99% herbicidal effect, phytotoxicity)
2 | CCC1(C(F)(F)F)CCN(Cc2ccccc2N(C(=O)OC)S(=O)(=O)C(F)(F)F)C(=O)O1 (stereo not shown) [Compound 1-92] | 5 (100% herbicidal effect, phytotoxicity) | 4 (90%-99% herbicidal effect, phytotoxicity) | 4 (90%-99% herbicidal effect, phytotoxicity) | 5 (100% herbicidal effect, phytotoxicity) | 4 (90%-99% herbicidal effect, phytotoxicity)
3 | CCOC(=O)N(c1ccccc1CN1CCC(CC)(C(F)(F)F)OC1=O)S(=O)(=O)C(F)(F)F (stereo not shown) [Compound 1-93] | 5 (100% herbicidal effect, phytotoxicity) | 5 (100% herbicidal effect, phytotoxicity) | 4 (90%-99% herbicidal effect, phytotoxicity) | 5 (100% herbicidal effect, phytotoxicity) | 4 (90%-99% herbicidal effect, phytotoxicity)
4 | CCC1(C(F)(F)F)CCN(Cc2ccccc2N(C(=O)OCC(C)C)S(=O)(=O)C(F)(F)F)C(=O)O1 (stereo not shown) [Compound 1-96] | 5 (100% herbicidal effect, phytotoxicity) | 4 (90%-99% herbicidal effect, phytotoxicity) | 4 (90%-99% herbicidal effect, phytotoxicity) | 5 (100% herbicidal effect, phytotoxicity) | 4 (90%-99% herbicidal effect, phytotoxicity)
5 | CCC1(CC)CCN(Cc2ccccc2NS(=O)(=O)C(F)(F)F)C(=O)O1 [Compound 1-102] | 4 (90%-99% herbicidal effect, phytotoxicity) | 4 (90%-99% herbicidal effect, phytotoxicity) | 4 (90%-99% herbicidal effect, phytotoxicity) | 4 (90%-99% herbicidal effect, phytotoxicity) | 4 (90%-99% herbicidal effect, phytotoxicity)
6 | CCOC(=O)N(c1ccccc1CN1CCC(CC)(CC)OC1=O)S(=O)(=O)C(F)(F)F [Compound 1-104] | 4 (90%-99% herbicidal effect, phytotoxicity) | 4 (90%-99% herbicidal effect, phytotoxicity) | 4 (90%-99% herbicidal effect, phytotoxicity) | 4 (90%-99% herbicidal effect, phytotoxicity) | 4 (90%-99% herbicidal effect, phytotoxicity)
7 | CCC1(CC)CCN(Cc2ccccc2N(C(=O)OCC(C)C)S(=O)(=O)C(F)(F)F)C(=O)O1 [Compound 1-107] | 4 (90%-99% herbicidal effect, phytotoxicity) | 4 (90%-99% herbicidal effect, phytotoxicity) | 4 (90%-99% herbicidal effect, phytotoxicity) | 4 (90%-99% herbicidal effect, phytotoxicity) | 4 (90%-99% herbicidal effect, phytotoxicity)
8 | CCCCC(CC)COC(=O)N(c1ccccc1CN1CCC(CC)(CC)OC1=O)S(=O)(=O)C(F)(F)F (stereo not shown) [Compound 1-109] | 4 (90%-99% herbicidal effect, phytotoxicity) | 4 (90%-99% herbicidal effect, phytotoxicity) | 4 (90%-99% herbicidal effect, phytotoxicity) | 4 (90%-99% herbicidal effect, phytotoxicity) | 4 (90%-99% herbicidal effect, phytotoxicity)
9 | CCC1(CC)CCN(Cc2ccccc2N(C(=O)OCC(C)(C)C)S(=O)(=O)C(F)(F)F)C(=S)O1 [Compound 1-120] | 4 (90%-99% herbicidal effect, phytotoxicity) | 4 (90%-99% herbicidal effect, phytotoxicity) | 4 (90%-99% herbicidal effect, phytotoxicity) | 4 (90%-99% herbicidal effect, phytotoxicity) | 4 (90%-99% herbicidal effect, phytotoxicity)
10 | CC1(C2CC2)CCN(Cc2ccccc2NS(=O)(=O)C(F)(F)F)C(=O)O1 (stereo not shown) [Compound 1-125] | 4 (90%-99% herbicidal effect, phytotoxicity) | 4 (90%-99% herbicidal effect, phytotoxicity) | 4 (90%-99% herbicidal effect, phytotoxicity) | 4 (90%-99% herbicidal effect, phytotoxicity) | 4 (90%-99% herbicidal effect, phytotoxicity)
11 | CC(C)COC(=O)N(c1ccccc1CN1CCC(C)(C2CC2)OC1=O)S(=O)(=O)C(F)(F)F (stereo not shown) [Compound 1-130] | 4 (90%-99% herbicidal effect, phytotoxicity) | 4 (90%-99% herbicidal effect, phytotoxicity) | 4 (90%-99% herbicidal effect, phytotoxicity) | 4 (90%-99% herbicidal effect, phytotoxicity) | 4 (90%-99% herbicidal effect, phytotoxicity)
12 | CC(C)(C)COC(=O)N(c1ccccc1CN1CCC(C)(C2CC2)OC1=O)S(=O)(=O)C(F)(F)F (stereo not shown) [Compound 1-131] | 4 (90%-99% herbicidal effect, phytotoxicity) | 4 (90%-99% herbicidal effect, phytotoxicity) | 4 (90%-99% herbicidal effect, phytotoxicity) | 4 (90%-99% herbicidal effect, phytotoxicity) | 4 (90%-99% herbicidal effect, phytotoxicity)
13 | CC(C)(C)C(=O)OCN(c1ccccc1CN1CCC(C)(C2CC2)OC1=O)S(=O)(=O)C(F)(F)F (stereo not shown) [Compound 1-136] | 4 (90%-99% herbicidal effect, phytotoxicity) | 4 (90%-99% herbicidal effect, phytotoxicity) | 4 (90%-99% herbicidal effect, phytotoxicity) | 4 (90%-99% herbicidal effect, phytotoxicity) | 4 (90%-99% herbicidal effect, phytotoxicity)
14 | O=C1OC2(CCCC2)CCN1Cc1ccccc1NS(=O)(=O)C(F)(F)F [Compound 1-137] | 4 (90%-99% herbicidal effect, phytotoxicity) | 4 (90%-99% herbicidal effect, phytotoxicity) | 4 (90%-99% herbicidal effect, phytotoxicity) | 4 (90%-99% herbicidal effect, phytotoxicity) | 4 (90%-99% herbicidal effect, phytotoxicity)
15 | CC(C)COC(=O)N(c1ccccc1CN1CCC2(CCCC2)OC1=O)S(=O)(=O)C(F)(F)F [Compound 1-142] | 4 (90%-99% herbicidal effect, phytotoxicity) | 4 (90%-99% herbicidal effect, phytotoxicity) | 4 (90%-99% herbicidal effect, phytotoxicity) | 4 (90%-99% herbicidal effect, phytotoxicity) | 4 (90%-99% herbicidal effect, phytotoxicity)
16 | CC(C)(C)COC(=O)N(c1ccccc1CN1CCC2(CCCC2)OC1=O)S(=O)(=O)C(F)(F)F [Compound 1-143] | 4 (90%-99% herbicidal effect, phytotoxicity) | 4 (90%-99% herbicidal effect, phytotoxicity) | 4 (90%-99% herbicidal effect, phytotoxicity) | 4 (90%-99% herbicidal effect, phytotoxicity) | 4 (90%-99% herbicidal effect, phytotoxicity)
17 | CCOC(=O)N(c1ccccc1CN1CCC(c2ccccc2)(C2CC2)OC1=O)S(=O)(=O)C(F)(F)F (stereo not shown) [Compound 1-185] | 4 (90%-99% herbicidal effect, phytotoxicity) | 4 (90%-99% herbicidal effect, phytotoxicity) | 4 (90%-99% herbicidal effect, phytotoxicity) | 4 (90%-99% herbicidal effect, phytotoxicity) | 4 (90%-99% herbicidal effect, phytotoxicity)
